Assay results published in patent US20230176038A1, “Methods for Identifying Modulators of Insect Transient Receptor Potential Channels” (BASF Corporation, priority 2019, published 2023).

What was measured:
[1] = molecular target: T1, complexes formed by Nanchung protein and Water witch protein (Nan + Wtrw) (Drosophila melanogaster, UniProt Q9VHY7+Q9VUD5); experiment: Competition binding with [3H]-afidopyropen to membranes from CHO-K1 cells co-expressing Nanchung and Water witch; details: FIG. 6, [3H]-afidopyropen displacement, Nan (SEQ ID NO 7) C-terminal HA/mCherry, Wtrw (SEQ ID NO 63) C-terminal FLAG/AcGFP, pH 7.4, 3 h room temperature, Cheng-Prusoff, read-out: Nan + Wtrw (Nanchung:Water witch complex) Ki
T1 construct: adenoviral co-expression in CHO-K1, membranes; [3H]-afidopyropen tracer
T1 sequence (Q9VUD5 1-833): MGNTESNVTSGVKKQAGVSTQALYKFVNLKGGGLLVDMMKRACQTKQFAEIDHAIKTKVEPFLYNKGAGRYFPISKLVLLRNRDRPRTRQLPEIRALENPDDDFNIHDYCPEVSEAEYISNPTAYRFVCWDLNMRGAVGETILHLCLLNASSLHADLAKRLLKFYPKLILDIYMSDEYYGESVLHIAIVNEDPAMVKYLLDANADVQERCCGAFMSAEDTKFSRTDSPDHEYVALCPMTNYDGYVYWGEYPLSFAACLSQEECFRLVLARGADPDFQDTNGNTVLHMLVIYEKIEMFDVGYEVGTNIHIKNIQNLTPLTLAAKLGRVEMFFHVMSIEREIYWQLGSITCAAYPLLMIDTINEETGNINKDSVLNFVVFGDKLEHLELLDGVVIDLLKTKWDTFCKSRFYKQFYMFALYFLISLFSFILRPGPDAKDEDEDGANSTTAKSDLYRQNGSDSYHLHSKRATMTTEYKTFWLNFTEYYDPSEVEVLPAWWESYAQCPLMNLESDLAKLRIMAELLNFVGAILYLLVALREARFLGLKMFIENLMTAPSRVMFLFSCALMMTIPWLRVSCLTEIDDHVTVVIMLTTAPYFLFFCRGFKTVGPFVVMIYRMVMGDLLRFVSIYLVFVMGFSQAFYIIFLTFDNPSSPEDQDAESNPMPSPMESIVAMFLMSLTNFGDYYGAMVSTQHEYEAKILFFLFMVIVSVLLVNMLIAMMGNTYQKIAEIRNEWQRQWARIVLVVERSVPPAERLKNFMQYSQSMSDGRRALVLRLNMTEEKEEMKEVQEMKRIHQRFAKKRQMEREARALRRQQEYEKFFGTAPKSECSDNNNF
T1 sequence (Q9VHY7 1-986): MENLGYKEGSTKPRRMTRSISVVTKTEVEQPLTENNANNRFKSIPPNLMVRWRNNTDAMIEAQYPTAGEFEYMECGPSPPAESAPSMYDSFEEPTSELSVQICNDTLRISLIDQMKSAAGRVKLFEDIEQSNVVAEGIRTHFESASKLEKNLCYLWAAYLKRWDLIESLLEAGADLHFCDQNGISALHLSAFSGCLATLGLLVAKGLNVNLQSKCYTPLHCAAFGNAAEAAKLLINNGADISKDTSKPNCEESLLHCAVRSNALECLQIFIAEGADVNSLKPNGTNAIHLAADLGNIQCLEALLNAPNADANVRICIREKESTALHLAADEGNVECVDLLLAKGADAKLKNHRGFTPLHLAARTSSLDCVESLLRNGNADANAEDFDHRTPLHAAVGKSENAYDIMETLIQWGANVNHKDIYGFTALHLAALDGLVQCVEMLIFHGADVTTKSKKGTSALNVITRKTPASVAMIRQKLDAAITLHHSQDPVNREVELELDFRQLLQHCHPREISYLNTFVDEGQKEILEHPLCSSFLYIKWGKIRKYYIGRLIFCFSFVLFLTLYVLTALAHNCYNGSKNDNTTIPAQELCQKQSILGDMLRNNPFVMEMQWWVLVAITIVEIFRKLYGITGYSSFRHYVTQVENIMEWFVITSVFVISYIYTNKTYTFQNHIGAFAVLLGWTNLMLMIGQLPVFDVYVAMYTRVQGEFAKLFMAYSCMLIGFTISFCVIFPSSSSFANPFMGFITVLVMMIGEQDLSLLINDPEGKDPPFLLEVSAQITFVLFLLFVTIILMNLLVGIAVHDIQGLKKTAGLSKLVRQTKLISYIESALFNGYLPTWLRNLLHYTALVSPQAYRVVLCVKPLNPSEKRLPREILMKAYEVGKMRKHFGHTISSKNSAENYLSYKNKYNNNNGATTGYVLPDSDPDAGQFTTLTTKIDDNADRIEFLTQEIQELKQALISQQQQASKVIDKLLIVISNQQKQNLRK

[2] = molecular target: T2, complexes formed by Nanchung protein and Inactive protein (Nan + Iav) (Drosophila melanogaster, UniProt Q9VUD5+Q9W3W0); experiment: Competition binding with [3H]-afidopyropen to membranes from CHO-K1 cells co-expressing Nanchung and Inactive; details: FIG. 6, [3H]-afidopyropen displacement, Nan (SEQ ID NO 7) C-terminal HA/mCherry, Iav (NP_572353) C-terminal FLAG/AcGFP, pH 7.4, 3 h room temperature, Cheng-Prusoff, read-out: Nan + Iav (Nanchung:Inactive complex) Ki
T2 construct: full-length Iav C-terminally fused to FLAG tags and AcGFP; adenoviral co-expression in CHO-K1, membranes; [3H]-afidopyropen tracer
T2 sequence (Q9VUD5 1-833): T1 sequence (Q9VUD5 1-833)
T2 sequence (Q9W3W0 1-1123): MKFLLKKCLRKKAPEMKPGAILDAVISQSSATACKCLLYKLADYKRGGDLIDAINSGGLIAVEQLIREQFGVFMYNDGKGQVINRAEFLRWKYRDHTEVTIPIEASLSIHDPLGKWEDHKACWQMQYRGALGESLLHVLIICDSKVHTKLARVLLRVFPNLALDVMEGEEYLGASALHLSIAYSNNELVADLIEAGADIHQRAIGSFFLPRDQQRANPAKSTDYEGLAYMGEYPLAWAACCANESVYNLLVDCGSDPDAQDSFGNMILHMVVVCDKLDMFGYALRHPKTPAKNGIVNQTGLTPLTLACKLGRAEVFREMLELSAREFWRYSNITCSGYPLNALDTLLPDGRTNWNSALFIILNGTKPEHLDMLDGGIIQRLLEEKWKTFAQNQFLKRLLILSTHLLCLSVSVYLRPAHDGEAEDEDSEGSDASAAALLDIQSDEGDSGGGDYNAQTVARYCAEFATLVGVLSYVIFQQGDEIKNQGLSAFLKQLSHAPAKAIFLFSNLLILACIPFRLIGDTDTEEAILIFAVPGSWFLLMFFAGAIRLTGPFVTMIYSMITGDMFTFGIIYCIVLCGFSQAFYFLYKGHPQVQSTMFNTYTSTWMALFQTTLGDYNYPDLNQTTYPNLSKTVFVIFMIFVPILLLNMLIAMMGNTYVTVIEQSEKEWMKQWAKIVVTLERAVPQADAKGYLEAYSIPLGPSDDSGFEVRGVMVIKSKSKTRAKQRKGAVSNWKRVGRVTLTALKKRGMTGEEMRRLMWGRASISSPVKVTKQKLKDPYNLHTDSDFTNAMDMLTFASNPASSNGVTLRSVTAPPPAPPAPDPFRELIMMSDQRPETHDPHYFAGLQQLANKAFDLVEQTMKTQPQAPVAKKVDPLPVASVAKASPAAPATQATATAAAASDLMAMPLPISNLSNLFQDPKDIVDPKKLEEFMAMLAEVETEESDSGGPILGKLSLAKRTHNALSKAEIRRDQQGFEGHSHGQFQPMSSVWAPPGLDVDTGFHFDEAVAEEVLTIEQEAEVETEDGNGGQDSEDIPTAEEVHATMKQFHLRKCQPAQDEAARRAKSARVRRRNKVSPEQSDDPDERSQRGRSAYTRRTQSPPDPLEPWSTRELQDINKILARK

[3] = molecular target: T3, complexes formed by Nanchung and Water witch proteins (Wtrw + Nan) (Drosophila melanogaster, UniProt Q9VHY7+Q9VUD5); experiment: Calcium mobilization (fluo-4AM, FLIPR-TETRA) in CHO-K1 cells co-expressing Water witch and Nanchung; assay type: cell-based
T3 construct: adenoviral co-expression in CHO-K1 cells, fluo-4 calcium FLIPR
T3 sequence (Q9VUD5 1-833): T1 sequence (Q9VUD5 1-833)
T3 sequence (Q9VHY7 1-986): T1 sequence (Q9VHY7 1-986)

CC1=NNC(=O)N(/N=C/c2cccnc2)C1 [Pymetrozine, pymetrozine]
Ki [1]: 102 nM
Ki [2]: 43 nM
EC50 [3]: 96 nM
